ChEMBL document CHEMBL1955831, “Inhibitors of human histone deacetylase with potent activity against the African trypanosome Trypanosoma brucei” (Bioorg Med Chem Lett, 2012)
One block for each compound: values may come before it. Activity calls are given as the source filed them. The rule behind the calls is not given here.

Tests used:
[1] = biological target: T1, Histone deacetylase 8 (Homo sapiens) (UniProt Q9BY41); test: Inhibition of human recombinant HDAC8 expressed using baculovirus expression system using Flour- De-Lys as substrate after 3 hrs by fluorescence analysis
T1 sequence (whole entry): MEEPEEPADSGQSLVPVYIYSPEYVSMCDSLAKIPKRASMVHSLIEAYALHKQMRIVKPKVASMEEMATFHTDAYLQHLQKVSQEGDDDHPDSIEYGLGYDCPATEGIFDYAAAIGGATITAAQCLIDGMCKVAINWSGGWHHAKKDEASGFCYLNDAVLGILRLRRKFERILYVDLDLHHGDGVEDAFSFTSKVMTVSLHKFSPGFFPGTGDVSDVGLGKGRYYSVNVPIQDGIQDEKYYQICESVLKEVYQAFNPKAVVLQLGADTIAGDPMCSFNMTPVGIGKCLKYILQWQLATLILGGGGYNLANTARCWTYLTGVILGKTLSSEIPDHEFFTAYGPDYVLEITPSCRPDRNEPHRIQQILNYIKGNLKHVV

[2] = biological target: Histone deacetylase 3 (Homo sapiens) (UniProt O15379); test: Inhibition of human recombinant HDAC3 expressed using baculovirus expression system using Flour- De-Lys as substrate after 3 hrs by fluorescence analysis
Sequence of Histone deacetylase 3 (Homo sapiens) (O15379 whole entry): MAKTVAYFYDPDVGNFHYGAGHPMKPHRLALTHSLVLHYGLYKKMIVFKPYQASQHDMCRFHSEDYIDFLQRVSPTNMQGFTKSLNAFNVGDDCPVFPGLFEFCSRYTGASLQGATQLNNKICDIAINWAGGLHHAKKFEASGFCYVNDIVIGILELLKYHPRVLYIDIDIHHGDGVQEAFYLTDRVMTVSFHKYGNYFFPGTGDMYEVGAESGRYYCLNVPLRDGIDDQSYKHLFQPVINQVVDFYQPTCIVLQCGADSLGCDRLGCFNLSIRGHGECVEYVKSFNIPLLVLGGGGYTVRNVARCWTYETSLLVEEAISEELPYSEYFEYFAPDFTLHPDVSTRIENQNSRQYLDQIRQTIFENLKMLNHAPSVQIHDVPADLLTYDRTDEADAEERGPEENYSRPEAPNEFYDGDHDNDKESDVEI

[3] = biological target: Histone deacetylase 9 (Homo sapiens) (UniProt Q9UKV0); test: Inhibition of human recombinant HDAC9 expressed using baculovirus expression system using Flour- De-Lys as substrate after 3 hrs by fluorescence analysis
Sequence of Histone deacetylase 9 (Homo sapiens) (Q9UKV0 whole entry): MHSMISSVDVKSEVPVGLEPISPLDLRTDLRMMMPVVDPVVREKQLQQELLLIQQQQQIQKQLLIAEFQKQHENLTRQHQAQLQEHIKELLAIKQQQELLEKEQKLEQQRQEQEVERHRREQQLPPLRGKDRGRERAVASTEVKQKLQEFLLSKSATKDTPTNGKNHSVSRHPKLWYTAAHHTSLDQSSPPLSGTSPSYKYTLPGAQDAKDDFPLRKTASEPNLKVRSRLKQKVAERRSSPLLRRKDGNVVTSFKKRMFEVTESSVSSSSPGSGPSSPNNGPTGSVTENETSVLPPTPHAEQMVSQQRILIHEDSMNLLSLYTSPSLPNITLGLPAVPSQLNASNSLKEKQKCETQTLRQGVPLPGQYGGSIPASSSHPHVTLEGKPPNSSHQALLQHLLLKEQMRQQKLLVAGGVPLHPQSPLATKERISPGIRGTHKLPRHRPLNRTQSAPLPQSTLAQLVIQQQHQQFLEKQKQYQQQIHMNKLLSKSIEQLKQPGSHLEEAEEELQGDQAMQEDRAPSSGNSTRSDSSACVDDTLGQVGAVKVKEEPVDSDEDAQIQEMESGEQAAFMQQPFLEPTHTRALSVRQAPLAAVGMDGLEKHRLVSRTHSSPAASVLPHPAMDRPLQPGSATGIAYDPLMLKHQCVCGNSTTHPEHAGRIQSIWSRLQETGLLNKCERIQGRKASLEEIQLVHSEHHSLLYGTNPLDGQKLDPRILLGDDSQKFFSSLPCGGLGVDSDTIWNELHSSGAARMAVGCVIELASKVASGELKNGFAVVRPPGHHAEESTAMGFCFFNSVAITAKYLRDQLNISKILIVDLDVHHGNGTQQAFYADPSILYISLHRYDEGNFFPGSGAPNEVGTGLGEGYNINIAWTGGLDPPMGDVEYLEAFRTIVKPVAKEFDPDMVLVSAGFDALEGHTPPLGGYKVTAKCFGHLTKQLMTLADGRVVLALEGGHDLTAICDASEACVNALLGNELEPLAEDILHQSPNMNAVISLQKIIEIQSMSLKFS

[4] = biological target: Histone deacetylase 4 (Homo sapiens) (UniProt P56524); test: Inhibition of human recombinant HDAC4 expressed using baculovirus expression system using Flour- De-Lys as substrate after 3 hrs by fluorescence analysis
Sequence of Histone deacetylase 4 (Homo sapiens) (P56524 whole entry): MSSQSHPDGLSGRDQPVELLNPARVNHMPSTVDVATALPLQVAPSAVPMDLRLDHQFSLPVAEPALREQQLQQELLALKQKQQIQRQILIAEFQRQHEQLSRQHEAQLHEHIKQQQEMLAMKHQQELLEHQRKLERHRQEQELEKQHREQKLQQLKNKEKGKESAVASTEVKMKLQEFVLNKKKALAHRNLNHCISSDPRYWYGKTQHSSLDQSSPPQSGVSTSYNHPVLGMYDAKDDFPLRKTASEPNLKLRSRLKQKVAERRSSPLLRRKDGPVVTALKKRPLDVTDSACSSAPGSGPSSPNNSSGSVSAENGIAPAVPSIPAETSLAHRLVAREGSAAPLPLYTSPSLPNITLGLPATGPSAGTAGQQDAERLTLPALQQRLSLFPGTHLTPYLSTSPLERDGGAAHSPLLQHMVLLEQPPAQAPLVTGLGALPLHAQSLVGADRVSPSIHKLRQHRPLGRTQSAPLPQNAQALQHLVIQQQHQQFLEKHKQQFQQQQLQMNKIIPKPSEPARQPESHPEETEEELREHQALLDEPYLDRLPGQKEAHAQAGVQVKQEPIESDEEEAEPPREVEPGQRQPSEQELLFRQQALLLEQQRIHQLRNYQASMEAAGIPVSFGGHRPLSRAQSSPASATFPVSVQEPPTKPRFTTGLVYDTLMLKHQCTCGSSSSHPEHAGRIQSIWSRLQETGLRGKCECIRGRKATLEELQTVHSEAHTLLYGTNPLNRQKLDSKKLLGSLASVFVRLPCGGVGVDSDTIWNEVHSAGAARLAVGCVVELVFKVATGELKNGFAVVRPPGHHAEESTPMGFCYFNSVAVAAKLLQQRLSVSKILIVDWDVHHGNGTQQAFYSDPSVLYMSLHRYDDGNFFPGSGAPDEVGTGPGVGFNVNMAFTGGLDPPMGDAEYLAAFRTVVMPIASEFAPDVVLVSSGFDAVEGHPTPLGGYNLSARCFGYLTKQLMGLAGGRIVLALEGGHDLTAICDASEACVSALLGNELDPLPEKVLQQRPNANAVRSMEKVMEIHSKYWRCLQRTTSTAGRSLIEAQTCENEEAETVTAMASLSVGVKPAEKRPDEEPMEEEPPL

[5] = biological target: Histone deacetylase 2 (Homo sapiens) (UniProt Q92769); test: Inhibition of human recombinant HDAC2 expressed using baculovirus expression system using Flour- De-Lys as substrate after 3 hrs by fluorescence analysis
Sequence of Histone deacetylase 2 (Homo sapiens) (Q92769 whole entry): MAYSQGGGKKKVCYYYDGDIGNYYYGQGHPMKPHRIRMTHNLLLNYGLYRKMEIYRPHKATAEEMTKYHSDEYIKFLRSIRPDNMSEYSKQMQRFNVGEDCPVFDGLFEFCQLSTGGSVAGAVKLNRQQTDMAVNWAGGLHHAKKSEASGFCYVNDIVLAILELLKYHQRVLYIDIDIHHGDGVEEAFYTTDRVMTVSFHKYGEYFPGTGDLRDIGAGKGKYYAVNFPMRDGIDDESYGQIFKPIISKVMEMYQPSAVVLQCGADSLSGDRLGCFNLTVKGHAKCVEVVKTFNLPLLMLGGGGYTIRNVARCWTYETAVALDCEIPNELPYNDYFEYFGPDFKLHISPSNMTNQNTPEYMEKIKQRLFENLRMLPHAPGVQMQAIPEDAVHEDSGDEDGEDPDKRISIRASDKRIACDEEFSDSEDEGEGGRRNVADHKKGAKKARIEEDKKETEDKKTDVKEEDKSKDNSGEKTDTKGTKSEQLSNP

Trypanosoma brucei = test: Antitrypanosomal activity against bloodstream Trypanosoma brucei 427 assessed as cell death at 2 ug/ml within 4 hrs by Giemsa staining-based DMRB microscopic analysis

Structure (SMILES): O=C(/C=C/c1nc2ccccc2o1)NO
ED50 [2]: 97 nM

Structure (SMILES): O=C(/C=C/c1cccc(S(=O)(=O)Nc2cccc(F)c2)c1)NO
ED50 [4]: 65 nM

Structure (SMILES): COc1ccc(NS(=O)(=O)c2cccc(/C=C/C(=O)NO)c2)cc1
ED50 [5]: 105 nM

Structure (SMILES): O=C(/C=C/c1cccc(S(=O)(=O)N2CCN(c3ncccn3)CC2)c1)NO
Activity (Trypanosoma brucei): Active

Results, then the compound that gave them:

ED50 [1]: 581 nM
Structure (SMILES): O=C(/C=C/c1cccc(S(=O)(=O)N2CCN(c3ccccn3)CC2)c1)NO

ED50 [3]: 145 nM
Structure (SMILES): COc1ccccc1N1CCN(S(=O)(=O)c2cccc(/C=C/C(=O)NO)c2)CC1

ED50 [3]: 1180 nM
Structure (SMILES): COc1ccc(N2CCN(S(=O)(=O)c3cccc(/C=C/C(=O)NO)c3)CC2)cc1
